Laboratory results: US10669289B2, “Boronic acid derivatives” (MERCK PATENT GMBH, priority 2014, dated 2020)

Experiments:
[1] = molecular target: human immuno proteasome (LMP7) (Homo sapiens (Human), UniProt P28062); assay: Determination of LMP7 activity (fluorescence intensity assay, Suc-LLVY-AMC); assay type: biochemical
Experimental: Determination of LMP7 Activity:
Measurement of LMP7 inhibition is performed in 384 well format based on fluorescence intensity assay.
(§1) Purified human immuno proteasome (0.25 nM) and serial diluted compounds in DMSO (range of concentrations from 30 μM to 15 pM) or controls are incubated for 20 minutes or 120 minutes (long incubation) at 25° C. in assay buffer containing 50 mM Tris pH 7.4, 0.03% SDS, 1 mM EDTA and 1% DMSO. The reaction is initiated by the addition of the fluorogenic peptide substrate, Suc-LLVY-AMC (Bachem 1-1395), at a concentration of 40 μM. After 60 minutes of incubation at 37° C., fluorescence intensity is measured at λex=350 nm and λem=450 nm with a fluorescence reader (Perkin Elmer Envision reader or equivalent).
(§2) Unless indicated otherwise the results are obtained after incubation for 20 minutes.

[2] = molecular target: human constitutive proteasome (Beta5) (Homo sapiens (Human), UniProt P28074); assay: Determination of Beta5 activity (fluorescence intensity assay, Suc-LLVY-AMC); assay type: biochemical
Experimental: Determination of Beta5 Activity:
Measurement of Beta5 inhibition is performed in 384 well format based on fluorescence intensity assay.
as §1, with “constitutive” for “immuno”, “(1.25” for “(0.25”
as §2

[3] = LMP7 versus Beta5, long incubation (120 min)

## C=CC(=O)N1CCC[C@@H]1C(=O)N[C@@H](Cc1ccc(C)cc1C)B(O)O [Compound No. 53, [(1R)-2-(2,4-dimethylphenyl)-1-[[(2R)-1-prop-2-enoylpyrrolidine-2-carbonyl]amino]ethyl]boronic Acid]
[1]; [3]
  Selectivity LMP7 vs Beta5: ++ (50 ≤ Selectivity < 70)
[1]; long incubation (120 min)
  IC50: 500 to 5000 nM
[2]; long incubation (120 min)
  IC50: > 5000 nM

## C=CC(=O)N1CCC[C@@H]1C(=O)N[C@@H](Cc1ccc(Cl)cc1Cl)B(O)O [Compound No. 54, [(1R)-2-(2,4-dichlorophenyl)-1-[[(2R)-1-prop-2-enoylpyrrolidine-2-carbonyl]amino]ethyl]boronic Acid]
[1]; [3]
  Selectivity LMP7 vs Beta5: ++ (50 ≤ Selectivity < 70)
[1]; long incubation (120 min)
  IC50: 500 to 5000 nM
[2]; long incubation (120 min)
  IC50: > 5000 nM

## C=CC(=O)N(CC(=O)N[C@@H](Cc1ccc(Cl)cc1)B(O)O)c1ccccc1F [Compound No. 55, [(1R)-2-(4-chlorophenyl)-1-[[2-(2-fluoro-N-prop-2-enoyl-anilino)acetyl]amino]ethyl]boronic Acid]
[1]; [3]
  Selectivity LMP7 vs Beta5: +++++ (Selectivity ≥ 150)
[1]; long incubation (120 min)
  IC50: < 50 nM
[2]; long incubation (120 min)
  IC50: 500 to 5000 nM

## C=CC(=O)N(CC#N)CC(=O)N[C@@H](Cc1ccc(C)cc1C)B(O)O [Compound No. 56, [(1R)-1-[[2-[cyanomethyl(prop-2-enoyl)amino]acetyl]-amino]-2-(2,4-dimethylphenyl)ethyl]boronic Acid]
[1]; [3]
  Selectivity LMP7 vs Beta5: +++++ (Selectivity ≥ 150)
[1]; long incubation (120 min)
  IC50: < 50 nM
[2]; long incubation (120 min)
  IC50: > 5000 nM

## C=CC(=O)N(CC(=O)N[C@@H](Cc1ccc(C)cc1C)B(O)O)CC(F)(F)F [Compound No. 57, [(1R)-2-(2,4-dimethylphenyl)-1-[[2-[prop-2-enoyl(2,2,2-trifluoroethyl)amino]acetyl]amino]ethyl]boronic Acid]
[1]; [3]
  Selectivity LMP7 vs Beta5: +++++ (Selectivity ≥ 150)
[1]; long incubation (120 min)
  IC50: 50 to 500 nM
[2]; long incubation (120 min)
  IC50: > 5000 nM

## C=CC(=O)N1CCC[C@H]1C(=O)N[C@@H](Cc1ccc(C)cc1C)B(O)O [Compound No. 58, [(1R)-2-(2,4-dimethylphenyl)-1-[[(2S)-1-prop-2-enoylpyrrolidine-2-carbonyl]amino]ethyl]boronic Acid]
[1]; LMP7 versus Beta5, incubation for 20 minutes
  Selectivity LMP7 vs Beta5: ++ (50 ≤ Selectivity < 70)
[1]; incubation for 20 minutes
  IC50: 500 to 5000 nM
[2]; incubation for 20 minutes
  IC50: > 5000 nM

## C=CC(=O)N(CC(=O)N[C@@H](Cc1ccc(C)cc1C)B(O)O)C1CC1 [Compound No. 59, [(1R)-1-[[2-[cyclopropyl(prop-2-enoyl)amino]acetyl]amino]-2-(2,4-dimethylphenyl)ethyl]boronic Acid]
[1]; [3]
  Selectivity LMP7 vs Beta5: +++++ (Selectivity ≥ 150)
[1]; long incubation (120 min)
  IC50: < 50 nM
[2]; long incubation (120 min)
  IC50: > 5000 nM

## C=CC(=O)N(CC(=O)N[C@@H](Cc1ccc(Cl)cc1Cl)B(O)O)CC(F)(F)F [Compound No. 60, [(1R)-2-(2,4-dichlorophenyl)-1-[[2-[prop-2-enoyl(2,2,2-trifluoroethyl)amino]acetyl]amino]ethyl]boronic Acid]
[1]; [3]
  Selectivity LMP7 vs Beta5: +++++ (Selectivity ≥ 150)
[1]; long incubation (120 min)
  IC50: < 50 nM
[2]; long incubation (120 min)
  IC50: > 5000 nM

## C=CC(=O)N(CC(=O)N[C@@H](Cc1ccc(C)c(C)c1)B(O)O)CC(F)(F)F [Compound No. 61, [(1R)-2-(3,4-dimethylphenyl)-1-[[2-[prop-2-enoyl(2,2,2-trifluoroethyl)amino]acetyl]amino]ethyl]boronic Acid]
[1]; [3]
  Selectivity LMP7 vs Beta5: +++++ (Selectivity ≥ 150)
[1]; long incubation (120 min)
  IC50: < 50 nM
[2]; long incubation (120 min)
  IC50: > 5000 nM

## CCN(CC(=O)N[C@@H](Cc1ccc(C)cc1C)B(O)O)C(=O)/C=C/C(=O)N(C)C [Compound No. 62, [(1R)-1-[[2-[[(E)-4-(dimethylamino)-4-oxo-but-2-enoyl]-ethyl-amino]acetyl]amino]-2-(2,4-dimethylphenyl)ethyl]boronic Acid]
[1]; [3]
  Selectivity LMP7 vs Beta5: +++++ (Selectivity ≥ 150)
[1]; long incubation (120 min)
  IC50: 50 to 500 nM
[2]; long incubation (120 min)
  IC50: > 5000 nM

## C=CC(=O)N(CC#N)CC(=O)N[C@@H](Cc1ccc(C)c(C)c1)B(O)O [Compound No. 63, [(1R)-1-[[2-[cyanomethyl(prop-2-enoyl)amino]acetyl]amino]-2-(3,4-dimethylphenyl)ethyl]boronic Acid]
[1]; [3]
  Selectivity LMP7 vs Beta5: +++++ (Selectivity ≥ 150)
[1]; long incubation (120 min)
  IC50: < 50 nM
[2]; long incubation (120 min)
  IC50: > 5000 nM

## C=CC(=O)N(CC)CC(=O)N[C@@H](Cc1ccc(C(F)(F)F)cc1C)B(O)O [Compound No. 64, [(1R)-1-[[2-[ethyl(prop-2-enoyl)amino]acetyl]amino]-2-[2-methyl-4-(trifluoromethyl)phenyl]ethyl]boronic Acid]
[1]; [3]
  Selectivity LMP7 vs Beta5: +++++ (Selectivity ≥ 150)
[1]; long incubation (120 min)
  IC50: 50 to 500 nM
[2]; long incubation (120 min)
  IC50: > 5000 nM

## C=CC(=O)N(CC)CC(=O)N[C@@H](Cc1ccc(Cl)c(Cl)c1)B(O)O [Compound No. 65, [(1R)-2-(3,4-dichlorophenyl)-1-[[2-[ethyl(prop-2-enoyl)amino]acetyl]amino]ethyl]boronic Acid]
[1]; [3]
  Selectivity LMP7 vs Beta5: +++++ (Selectivity ≥ 150)
[1]; long incubation (120 min)
  IC50: < 50 nM
[2]; long incubation (120 min)
  IC50: > 5000 nM

## C=CC(=O)N(C)CC(=O)N[C@@H](Cc1ccc(Cl)c(Cl)c1)B(O)O [Compound No. 66, [(1R)-2-(3,4-dichlorophenyl)-1-[[2-[methyl(prop-2-enoyl)amino]acetyl]amino]ethyl]boronic Acid]
[1]; [3]
  Selectivity LMP7 vs Beta5: +++++ (Selectivity ≥ 150)
[1]; long incubation (120 min)
  IC50: < 50 nM
[2]; long incubation (120 min)
  IC50: > 5000 nM

## C=CC(=O)N(C)CC(=O)N[C@@H](Cc1ccc(C(F)(F)F)cc1C)B(O)O [Compound No. 67, [(1R)-1-[[2-[methyl(prop-2-enoyl)amino]acetyl]amino]-2-[2-methyl-4-(trifluoromethyl)phenyl]ethyl]boronic Acid]
[1]; [3]
  Selectivity LMP7 vs Beta5: +++++ (Selectivity ≥ 150)
[1]; long incubation (120 min)
  IC50: < 50 nM
[2]; long incubation (120 min)
  IC50: > 5000 nM

## C=CC(=O)N(C)[C@@H](C)C(=O)N[C@@H](Cc1ccc(C)c(C)c1)B(O)O [Compound No. 68, [(1R)-2-(3,4-dimethylphenyl)-1-[[(2S)-2-[methyl(prop-2-enoyl)amino]propanoyl]amino]ethyl]boronic Acid]
[1]; [3]
  Selectivity LMP7 vs Beta5: +++++ (Selectivity ≥ 150)
[1]; long incubation (120 min)
  IC50: 50 to 500 nM
[2]; long incubation (120 min)
  IC50: > 5000 nM

## C=CC(=O)N(CC(=O)N[C@@H](Cc1ccc(Cl)c(Cl)c1)B(O)O)C1CC1 [Compound No. 69, [(1R)-1-[[2-[cyclopropyl(prop-2-enoyl)amino]acetyl]amino]-2-(3,4-dichlorophenyl)ethyl]boronic Acid]
[1]; [3]
  Selectivity LMP7 vs Beta5: +++++ (Selectivity ≥ 150)
[2]; long incubation (120 min)
  IC50: 500 to 5000 nM

## C=CC(=O)N(CC(=O)N[C@@H](Cc1ccc(Cl)cc1Cl)B(O)O)C1CC1 [Compound No. 70, [(1R)-1-[[2-[cyclopropyl(prop-2-enoyl)amino]acetyl]amino]-2-(2,4-dichlorophenyl)ethyl]boronic Acid]
[1]; [3]
  Selectivity LMP7 vs Beta5: +++++ (Selectivity ≥ 150)
[1]; long incubation (120 min)
  IC50: < 50 nM
[2]; long incubation (120 min)
  IC50: > 5000 nM

## C=CC(=O)N(CC(=O)N[C@@H](Cc1ccc(C)c(C)c1)B(O)O)C1CC1 [Compound No. 71, [(1R)-1-[[2-[cyclopropyl(prop-2-enoyl)amino]acetyl]amino]-2-(3,4-dimethylphenyl)ethyl]boronic Acid]
[1]; [3]
  Selectivity LMP7 vs Beta5: +++++ (Selectivity ≥ 150)
[1]; long incubation (120 min)
  IC50: < 50 nM
[2]; long incubation (120 min)
  IC50: > 5000 nM

## C=CC(=O)N(CC)CC(=O)N[C@@H](Cc1ccc(C)c(C)c1C)B(O)O [Compound No. 72, [(1R)-1-[[2-[ethyl(prop-2-enoyl)amino]acetyl]amino]-2-(2,3,4-trimethylphenyl)ethyl]boronic Acid]
[1]; [3]
  Selectivity LMP7 vs Beta5: +++++ (Selectivity ≥ 150)
[1]; long incubation (120 min)
  IC50: 50 to 500 nM
[2]; long incubation (120 min)
  IC50: > 5000 nM

## C=CC(=O)N(C)CC(=O)N[C@H](Cc1ccsc1)B(O)O [Compound No. 73, [(1S)-1-[[2-[methyl(prop-2-enoyl)amino]acetyl]amino]-2-(3-thienyl)ethyl]boronic Acid]
[1]; [3]
  Selectivity LMP7 vs Beta5: ++ (50 ≤ Selectivity < 70)
[1]; long incubation (120 min)
  IC50: 500 to 5000 nM
[2]; long incubation (120 min)
  IC50: > 5000 nM

## C=CC(=O)N(C)CC(=O)N[C@@H](Cc1ccc(C)c(C)c1C)B(O)O [Compound No. 74, [(1R)-1-[[2-[methyl(prop-2-enoyl)amino]acetyl]amino]-2-(2,3,4-trimethylphenyl)ethyl]boronic Acid]
[1]; [3]
  Selectivity LMP7 vs Beta5: +++++ (Selectivity ≥ 150)
[1]; long incubation (120 min)
  IC50: < 50 nM
[2]; long incubation (120 min)
  IC50: > 5000 nM

## C=CC(=O)N(C)CC(=O)N[C@@H](Cc1ccsc1)B(O)O [Compound No. 75, [(1R)-1-[[2-[methyl(prop-2-enoyl)amino]acetyl]amino]-2-(3-thienyl)ethyl]boronic Acid]
[1]; [3]
  Selectivity LMP7 vs Beta5: +++++ (Selectivity ≥ 150)
[1]; long incubation (120 min)
  IC50: 50 to 500 nM
[2]; long incubation (120 min)
  IC50: > 5000 nM

## C=CC(=O)N(CC)CC(=O)N[C@H](Cc1ccsc1)B(O)O [Compound No. 76, [(1S)-1-[[2-[ethyl(prop-2-enoyl)amino]acetyl]amino]-2-(3-thienyl)ethyl]boronic Acid]
[1]; [3]
  Selectivity LMP7 vs Beta5: + (Selectivity < 50)
[1]; long incubation (120 min)
  IC50: 500 to 5000 nM
[2]; long incubation (120 min)
  IC50: > 5000 nM

## C=CC(=O)N(CC)CC(=O)N[C@@H](Cc1ccsc1)B(O)O [Compound No. 77, [(1R)-1-[[2-[ethyl(prop-2-enoyl)amino]acetyl]amino]-2-(3-thienyl)ethyl]boronic Acid]
[1]; [3]
  Selectivity LMP7 vs Beta5: +++++ (Selectivity ≥ 150)
[1]; long incubation (120 min)
  IC50: < 50 nM
[2]; long incubation (120 min)
  IC50: > 5000 nM
